Each molecule was assayed against E-selectin (Homo sapiens, UniProt P16581) (assay: E-Selectin Activity - competitive binding assay (sLe^a polyacrylamide conjugate vs immobilized E-selectin/Ig chimera)). Details: concentration required to inhibit binding of sLe^a conjugate to immobilized E-selectin/Ig chimera by 50%.
Sequence of E-selectin (P16581 22-610 limits assumed): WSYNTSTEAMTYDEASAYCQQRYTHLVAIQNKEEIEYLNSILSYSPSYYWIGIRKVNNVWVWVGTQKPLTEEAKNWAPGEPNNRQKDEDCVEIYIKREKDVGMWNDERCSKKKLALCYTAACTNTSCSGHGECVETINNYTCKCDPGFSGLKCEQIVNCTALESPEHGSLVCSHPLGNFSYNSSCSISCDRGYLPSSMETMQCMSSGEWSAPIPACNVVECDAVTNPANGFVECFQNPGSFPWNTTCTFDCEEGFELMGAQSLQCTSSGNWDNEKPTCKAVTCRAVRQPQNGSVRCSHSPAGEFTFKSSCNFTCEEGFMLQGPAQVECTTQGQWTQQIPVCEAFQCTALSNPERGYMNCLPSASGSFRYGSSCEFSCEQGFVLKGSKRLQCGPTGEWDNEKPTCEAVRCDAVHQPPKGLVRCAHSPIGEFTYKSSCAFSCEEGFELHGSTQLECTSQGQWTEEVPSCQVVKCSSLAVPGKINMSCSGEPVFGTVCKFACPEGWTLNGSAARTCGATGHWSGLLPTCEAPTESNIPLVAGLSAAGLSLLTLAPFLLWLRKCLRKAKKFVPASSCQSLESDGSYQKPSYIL
Procedure: The inhibition assay to screen for and characterize glycomimetic antagonists of E-selectin is a competitive binding assay, which allows the determination of IC50 values. E-selectin/Ig chimera was immobilized in 96 well microtiter plates by incubation at 37° C. for 2 hours. To reduce nonspecific binding, bovine serum albumin was added to each well and incubated at room temperature for 2 hours. The plate was washed and serial dilutions of the test compounds were added to the wells in the presence of conjugates of biotinylated, sLe^a polyacrylamide with streptavidin/horseradish peroxidase and incubated for 2 hours at room temperature.
To determine the amount of sLe^a bound to immobilized E-selectin after washing, the peroxidase substrate, 3,3′,5,5′ tetramethylbenzidine (TMB) was added. After 3 minutes, the enzyme reaction was stopped by the addition of H3PO4, and the absorbance of light at a wavelength of 450 nm was determined.
`CCC1CC(C(=O)NCCNC(=O)c2cn(CC(CO)(COS(=O)(=O)O)COS(=O)(=O)O)nn2)C[C@@H](O[C@@H]2O[C@@H](CO)[C@H](O)C(O[C@@H](CC3CCCCC3)C(=O)N3CCC3)C2NC(C)=O)[C@@H]1O[C@@H]1OC(C)[C@@H](O)[C@H](O)C1O` (stereo partly drawn) [Compound 18] showed an IC50 of 170 nM. In the case of `CCC1CC(C(=O)NCCNC(=O)c2cn(CCCOS(=O)(=O)O)nn2)C[C@@H](O[C@@H]2O[C@@H](CO)[C@H](O)C(O[C@@H](CC3CCCCC3)C(=O)N3CCC3)C2NC(C)=O)[C@@H]1O[C@@H]1OC(C)[C@@H](O)[C@H](O)C1O` (stereo partly drawn) [Compound 19], the IC50 is reported as 580 nM. Molecule `CCC1CC(C(=O)NCCNC(=O)c2cn(CC(CO)(CO)CO)nn2)C[C@@H](O[C@@H]2O[C@@H](CO)[C@H](O)C(O[C@@H](CC3CCCCC3)C(=O)N3CCC3)C2NC(C)=O)[C@@H]1O[C@@H]1OC(C)[C@@H](O)[C@H](O)C1O` (stereo partly drawn) [Compound 20] has an IC50 of 240 nM. Molecule `CCC1CC(C(=O)NCCNC(=O)c2cn(CCCO)nn2)C[C@@H](O[C@@H]2O[C@@H](CO)[C@H](O)C(O[C@@H](CC3CCCCC3)C(=O)N3CCC3)C2NC(C)=O)[C@@H]1O[C@@H]1OC(C)[C@@H](O)[C@H](O)C1O` (stereo partly drawn) [Compound 21] has an IC50 of 520 nM. `CCC1CC(C(=O)NCCNC(=O)[C@@H](OS(=O)(=O)O)[C@@H](COS(=O)(=O)O)OS(=O)(=O)O)C[C@@H](O[C@@H]2O[C@@H](CO)[C@H](O)C(O[C@@H](CC3CCCCC3)C(=O)O)C2NC(C)=O)[C@@H]1O[C@@H]1OC(C)[C@@H](O)[C@H](O)C1O` (stereo partly drawn) [Compound 24] gave an IC50 of 190 nM. Molecule `CCC1CC(C(=O)NCCNC(=O)[C@@H](OS(=O)(=O)O)[C@H](COS(=O)(=O)O)OS(=O)(=O)O)C[C@@H](O[C@@H]2O[C@@H](CO)[C@H](O)C(O[C@@H](CC3CCCCC3)C(=O)O)C2NC(C)=O)[C@@H]1O[C@@H]1OC(C)[C@@H](O)[C@H](O)C1O` (stereo partly drawn) [Compound 25] has an IC50 of 660 nM. Work on `CCC1CC(C(=O)NCCNC(=O)CC(C)S(=O)(=O)O)C[C@@H](O[C@@H]2O[C@@H](CO)[C@H](O)C(O[C@@H](CC3CCCCC3)C(=O)O)C2NC(C)=O)[C@@H]1O[C@@H]1OC(C)[C@@H](O)[C@H](O)C1O` (stereo partly drawn) [Compound 30] yielded an IC50 of 2780 nM. Work on `CCC1CC(C(=O)NCCNC(=O)CC(CS(=O)(=O)O)S(=O)(=O)O)C[C@@H](O[C@@H]2O[C@@H](CO)[C@H](O)C(O[C@@H](CC3CCCCC3)C(=O)O)C2NC(C)=O)[C@@H]1O[C@@H]1OC(C)[C@@H](O)[C@H](O)C1O` (stereo partly drawn) [Compound 31] yielded an IC50 of 2360 nM. Work on `CCC1CC(C(=O)NCCNC(=O)CCCS(=O)(=O)O)C[C@@H](O[C@@H]2O[C@@H](CO)[C@H](O)C(O[C@@H](CC3CCCCC3)C(=O)O)C2NC(C)=O)[C@@H]1O[C@@H]1OC(C)[C@@H](O)[C@H](O)C1O` (stereo partly drawn) [Compound 33] yielded an IC50 of 2120 nM. `CCC1CC(C(=O)NCCNC(=O)CCC(=O)O)C[C@@H](O[C@@H]2O[C@@H](CO)[C@H](O)C(O[C@@H](CC3CCCCC3)C(=O)O)C2NC(C)=O)[C@@H]1O[C@@H]1OC(C)[C@@H](O)[C@H](O)C1O` (stereo partly drawn) [Compound 35] was tested, and the IC50 was 720 nM. Work on `CCC1CC(C(=O)NCCNC(=O)CCCC(=O)O)C[C@@H](O[C@@H]2O[C@@H](CO)[C@H](O)C(O[C@@H](CC3CCCCC3)C(=O)O)C2NC(C)=O)[C@@H]1O[C@@H]1OC(C)[C@@H](O)[C@H](O)C1O` (stereo partly drawn) [Compound 36] yielded an IC50 of 510 nM. Work on `CCC1CC(C(=O)NCCNC(=O)CCOCCOCCNC(=O)c2cn(C(COS(=O)(=O)O)(COS(=O)(=O)O)COS(=O)(=O)O)nn2)C[C@@H](O[C@@H]2O[C@@H](CO)[C@H](O)C(O[C@@H](CC3CCCCC3)C(=O)O)C2NC(C)=O)[C@@H]1O[C@@H]1OC(C)[C@@H](O)[C@H](O)C1O` (stereo partly drawn) [Compound 46] yielded an IC50 of 192 nM.

— US20240165139A1, “GALACTOPYRANOSYL-CYCLOHEXYL DERIVATIVES AS E-SELECTIN ANTAGONISTS” (GLYCOMIMETICS, INC., priority 2017, published 2024)
